Source: patent publication US20120142668A1, “CATHEPSIN C INHIBITORS” (priority 2009, published 2012)
Where a name gives a salt, the structure may show the parent alone.

Molecular target: recombinant human cathepsin C (Homo sapiens, UniProt P53634)
Experiment: Recombinant Cathepsin C In Vitro Assay (cleavage of fluorogenic substrate H-Ser-Tyr-AMC)
Format: biochemical
Details: 24 pM enzyme, pH 5.5, one hour preincubation with compound at room temperature, read-out: concentration at which 50% cathepsin C inhibition is exhibited
Experimental: C. Recombinant Cathepsin C In Vitro Assay:
The activity of recombinant human cathepsin C was measured by the cleavage of a fluorogenic substrate, H-Ser-Tyr-AMC. Briefly, 24 pM cathepsin C was incubated with test compound (e.g. inhibitor) in a buffer consisting of 50 mM sodium acetate, 30 mM sodium chloride, 1 mM CHAPS, 1 mM dithiothreitol, 1 mM EDTA, pH 5.5 at room temperature for one hour. After one hour of incubating test compound with cathepsin C, the activity assay was initiated by the addition of an equal volume of 0.010 mM H-Ser-Tyr-AMC in the same buffer. After one hour, the activity assay was stopped by the addition of ⅕ volume of 100 μM E-64. The reaction product was measured on a fluorescence reader set at an excitation wavelength of 360 nm and emission wavelength of 460 nm and equipped with a 400 nm dichroic mirror.

Sequence of recombinant human cathepsin C (P53634 25-463): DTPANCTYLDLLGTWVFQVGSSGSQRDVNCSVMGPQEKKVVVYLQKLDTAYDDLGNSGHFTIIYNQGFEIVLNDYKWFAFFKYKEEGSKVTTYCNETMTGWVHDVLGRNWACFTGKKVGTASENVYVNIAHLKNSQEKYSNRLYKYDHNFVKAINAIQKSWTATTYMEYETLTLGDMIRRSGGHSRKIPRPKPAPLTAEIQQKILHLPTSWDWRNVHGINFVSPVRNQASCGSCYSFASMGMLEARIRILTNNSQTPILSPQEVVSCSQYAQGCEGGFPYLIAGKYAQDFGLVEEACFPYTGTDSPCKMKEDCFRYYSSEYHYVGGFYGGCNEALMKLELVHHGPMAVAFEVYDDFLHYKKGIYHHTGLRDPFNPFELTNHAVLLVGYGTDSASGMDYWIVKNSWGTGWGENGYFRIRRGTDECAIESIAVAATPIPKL

Row | SMILES | IC50 [µM]
1 | C[C@H](N)C(=O)N[C@H](/C=C/C(=O)NCc1ccccc1)CCc1ccccc1 [Example 1, (2E,4S)-4-(L-alanylamino)-6-phenyl-N-(phenylmethyl)-2-hexenamide hydrochloride] | ~0.1
2 | C[C@H](N)C(=O)N[C@H](/C=C/C(=O)N(C)C)CCc1ccccc1 [Example 3, (2E,4S)-4-(L-alanylamino)-N,N-dimethyl-6-phenyl-2-hexenamide hydrochloride] | ~1
